Measurements published in ChEMBL document CHEMBL3044566, “Synthesis and anticancer activity of some new s-triazine derivatives” (Med Chem Res, 2013).

Tests used:
Type in all cases: functional, cell-based
HT-29 = experiment: Cytotoxicity against human HT-29 cells after 24 hrs by MTT assay; conditions: HT-29, 24 h
PA-1 = experiment: Cytotoxicity against human PA1 cells after 24 hrs by MTT assay; conditions: PA-1, 24 h
A549 = experiment: Cytotoxicity against human A549 cells after 24 hrs by MTT assay; conditions: A549, 24 h
MCF7 = experiment: Cytotoxicity against human MCF7 cells after 24 hrs by MTT assay; conditions: MCF7, 24 h

SMILES | IC50 (HT-29) [µM] | IC50 (PA-1) [µM] | IC50 (A549) [µM] | IC50 (MCF7) [µM]
Fc1ccc(Nc2nc(Nc3ccc(-c4nc5ccccc5o4)cc3)nc(N3CCOCC3)n2)cc1 | 0.31 | 0.45 | 26.7 | 12.3
c1ccc(CNc2nc(Nc3ccc(-c4nc5ccccc5o4)cc3)nc(N3CCOCC3)n2)cc1 | 0.92 | 10.5 | 23.4 | 2.46
COc1ccc(Nc2nc(Nc3ccc(-c4nc5ccccc5o4)cc3)nc(N3CCOCC3)n2)cc1 | 0.14 | 0.25 | 12.9 | 6.48
c1ccc(Nc2nc(Nc3ccc(-c4nc5ccccc5o4)cc3)nc(N3CCOCC3)n2)cc1 | 0.27 | 0.61 | 22 | 10.6
Clc1nc(NCc2ccccc2)nc(Nc2ccc(-c3nc4ccccc4o3)cc2)n1 | 44 | 195 | 296 | 66.1
Fc1ccc(Nc2nc(Cl)nc(Nc3ccc(-c4nc5ccccc5o4)cc3)n2)cc1 | 47 | 186 | 254 | 68.4
COc1ccc(Nc2nc(Cl)nc(Nc3ccc(-c4nc5ccccc5o4)cc3)n2)cc1 | 139 | 172 | 278 | 270
Clc1nc(Nc2ccccc2)nc(Nc2ccc(-c3nc4ccccc4o3)cc2)n1 | 32.6 | 169 | 225 | 55.2
COc1cccc2c1C(=O)c1c(O)c3c(c(O)c1C2=O)C[C@@](O)(C(=O)CO)C[C@@H]3O[C@H]1C[C@H](N)[C@H](O)[C@H](C)O1 [DOXORUBICIN] | 1.76 | 0.64 |  | 10.9
